Read-outs that look alike come from different tables or passages of the source.
Columns and labels:
[1] = Plasma levels after transdermal administration to hairless mice; type: in vivo; conditions: for Peak plasma concentration of parent compound after prodrug compound / t, time to peak plasma level of parent compound after prodrug compound: mouse, in vivo
Description: Tested compounds (20% solution or suspension in 1 mL isopropanol) are administered transdermally to the skin of intact hairless mice. The plasma levels of the parent compounds are determined by HPLC.

mice = assay: Analgesic activity, acetic acid writhing; type: in vivo
Description: The prodrug compounds are administered either transdermally or orally. The parent compounds are administered orally. The number of writhing that occurred when mice are administered the acetic acid solution are counted, and the rate of inhibition based on the control group which was not pretreated with any test compounds is calculated. […] The A group is the control group.

rats = assay: Antipyretic activity, E. coli suspension as pyrogen; type: in vivo; conditions: in °C (unit assumed)
Description: Rats are administered with sterilized E. coli suspension as a pyrogen. Each group of rats are administered with a prodrug compounds or parent compounds at a dosage specified below. The prodrug compounds are administered either orally or transdermally. The parent compounds are administered orally.

human skin tissue = conditions: pH 7.4
in vivo = conditions: rat
Description: The acute toxicity of the prodrug compounds and parent compounds are measured by LD50 of rat.

[2] = Solubility in water / aqueous solubility of HPPs and parent drugs; conditions: product as prepared in Example 1
[3] = 100 mg/kg transdermally, 30 min before acetic acid
[4] = 50 mg/kg transdermally, 30 min before acetic acid
[5] = 50 mg/kg transdermally, 60 minutes before acetic acid
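For LD50 in this document: acute toxicity in rats expressed as LD50, determined for both prodrugs and their parent compounds.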
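For LD50 of HPP in this document: acute toxicity in rats expressed as LD50, determined for both prodrugs and their parent compounds.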

In the case of `CC(=O)O.CCN(CC)CCOC(=O)C(C)c1ccc2oc(-c3ccc(Cl)cc3)nc2c1` (stereo not drawn) [diethylaminoethyl 2-(4-chlorophenyl)-α-methyl-5-benzoxazoleacetate.AcOH], the “Peak plasma concentration of parent compound after prodrug compound” value [1] is reported as 2000 mg/L, the “t, time to peak plasma level of parent compound after prodrug compound” value (shortened to “t, time … after prodrug compound”) [1] is reported as 50 min and the “% (rate of writhing inhibition)” value (mice; [3]) is reported as 51%. The “No. of Writhing” value (mice; [3]) was 17.1, the “body temperature, t = 0 min” value (rats; 100 mg/kg transdermally) was 37.25 ± 0.07 and the “body temperature, t = 90 min” value (rats; 100 mg/kg transdermally) was 36.82 ± 0.06. The “body temperature, t = 180 min” value (rats; 100 mg/kg transdermally) was 36.70 ± 0.05, the “body temperature, t = 270 min” value (rats; 100 mg/kg transdermally) was 36.50 ± 0.08 and the “In vitro penetration rate (apparent flux), prodrug compounds” value (human skin tissue) was 4000 μg/cm^2/h. The “LD50 of HPP” value (rat; rats) was 1300 mg/kg.

With `O=C(O)Cc1sc(-c2ccccc2)nc1-c1ccc(Cl)cc1` [Fentiazac, fentiazac, reference compound] the “t, time to peak plasma level after parent compound” value ([1]; parent compound administered (time when taken orally)) was 1 to 2 h, the “Peak plasma concentration after parent compound” value ([1]; parent compound administered, hairless mice) was 0.1 mg/L and the “In vitro penetration rate (apparent flux), parent compounds” value (human skin tissue; human, 20 %) was 10 μg/cm^2/h. The LD50 (in vivo) was 700 mg/kg.

In the case of `CC(=O)O.CN(C)CCOC(=O)Cc1ccccc1Nc1c(Cl)cccc1Cl` [dimethylaminoethyl 2[(2,6-dichlorophenyl)amino] benzene acetate.AcOH], the “LD50 of HPP” value (rat; rat, in vivo) is reported as 700 mg/kg and the Solubility in water [2] is reported as 410 mg/mL.

For `CC(=O)O.CCN(CC)CCOC(=O)C(C)c1cccc(Oc2ccccc2)c1` (stereo not shown) [diethylaminoethyl 2-(3-phenoxyphenyl) propionate.AcOH], the “Peak plasma concentration of parent compound after prodrug compound” value [1] was 20 mg/L, the “t, time … after prodrug compound” value [1] was 40 min and the “% (rate of writhing inhibition)” value (mice; [4]) was 60%. The “No. of Writhing” value (mice; [4]) was 14.0, the “body temperature, t = 0 min” value (rats; 50 mg/kg transdermally) was 37.28 ± 0.06 and the “body temperature, t = 90 min” value (rats; 50 mg/kg transdermally) was 36.65 ± 0.06. The “body temperature, t = 180 min” value (rats; 50 mg/kg transdermally) was 36.58 ± 0.08, the “body temperature, t = 270 min” value (rats; 50 mg/kg transdermally) was 36.56 ± 0.07 and the “In vitro penetration rate (apparent flux), prodrug compounds” value (human skin tissue) was 1250 μg/cm^2/h. The “LD50 of HPP” value (rat; rats) was 1500 mg/kg.

With `Cc1cnc(NC(=O)C2=C(OC(=O)CCCN(C)C)c3ccccc3S(=O)(=O)N2C)s1.Cl` [4-N,N-dimethylaminobutyryloxy-2-methyl-N-(5-methyl-2-thiazolyl)-2H-1,2-benzothiazine-3-carboxamide-1,1-dioxide.HCl] the “Peak plasma concentration of parent compound after prodrug compound” value [1] was 20 mg/L, the “% (rate of writhing inhibition)” value (mice; [5]) was 48% and the “No. of Writhing” value (mice; [5]) was 18.2. The “body temperature, t = 0 min” value (rats; 25 mg/kg transdermally) was 37.57 ± 0.07, the “body temperature, t = 90 min” value (rats; 25 mg/kg transdermally) was 36.53 ± 0.08 and the “body temperature, t = 180 min” value (rats; 25 mg/kg transdermally) was 36.52 ± 0.08. The “body temperature, t = 270 min” value (rats; 25 mg/kg transdermally) was 36.50 ± 0.07, the “In vitro penetration rate (apparent flux), prodrug compounds” value (human skin tissue) was 1900 μg/cm^2/h and the “LD50 of HPP” value (rat; rats) was 590 mg/kg.

With `CC(=O)O.CCN(CC)CCOC(=O)C(C)c1ccc(N2Cc3ccccc3C2=O)cc1` (stereo not drawn) [diethylaminoethyl 4-(1,3-dihydro-1-oxo-2H-isoindol-2-yl)-α-methylbenzeneacetate.AcOH] the “Peak plasma concentration of parent compound after prodrug compound” value [1] was 2000 mg/L, the “t, time … after prodrug compound” value [1] was 50 min and the “% (rate of writhing inhibition)” value (mice; [3]) was 62%. The “No. of Writhing” value (mice; [3]) was 13.2, the “body temperature, t = 0 min” value (rats; 100 mg/kg transdermally) was 37.28 ± 0.06 and the “body temperature, t = 90 min” value (rats; 100 mg/kg transdermally) was 36.65 ± 0.06. The “body temperature, t = 180 min” value (rats; 100 mg/kg transdermally) was 36.58 ± 0.08, the “body temperature, t = 270 min” value (rats; 100 mg/kg transdermally) was 36.56 ± 0.07 and the “In vitro penetration rate (apparent flux), prodrug compounds” value (human skin tissue) was 4200 μg/cm^2/h. For the same compound, the “LD50 of HPP” value (rat; rats) was 3500 mg/kg.

For `CC(=O)O.CCN(CC)CCOC(=O)C1CCc2cc(C3CCCCC3)c(Cl)cc21` (stereo not shown) [diethylaminoethyl 6-chloro-5-cyclohexyl-2,3-dihydro-1H-indene-1-carboxylate.AcOH], the “Peak plasma concentration of parent compound after prodrug compound” value [1] was 2000 mg/L, the “t, time … after prodrug compound” value [1] was 50 min and the “% (rate of writhing inhibition)” value (mice; [3]) was 57%. The “No. of Writhing” value (mice; [3]) was 15.2, the “body temperature, t = 0 min” value (rats; 100 mg/kg transdermally) was 37.25 ± 0.06 and the “body temperature, t = 90 min” value (rats; 100 mg/kg transdermally) was 36.63 ± 0.06. The “body temperature, t = 180 min” value (rats; 100 mg/kg transdermally) was 36.55 ± 0.08, the “body temperature, t = 270 min” value (rats; 100 mg/kg transdermally) was 36.51 ± 0.07 and the “In vitro penetration rate (apparent flux), prodrug compounds” value (human skin tissue) was 4000 μg/cm^2/h. The “LD50 of HPP” value (rat; rats) was 200 mg/kg.
